In patent EP1803452A1, “ESTER DERIVATIVE AND PHARMACEUTICAL USE THEREOF” (Japan Tobacco, Inc., priority 2004, dated 2006):

Key:
[1] = Stability test in buffer (pH 7.4); type: physicochemical; settings: phosphate buffer/acetonitrile 7:3, 100 mM potassium phosphate buffer (pH 7.4) and acetonitrile 7:3 (v/v), LC/MS; for remaining at 10 min: 10 minutes at 37°C, read-out: Buf. remaining rate (%/10min); for remaining at 1 h: 60 minutes at 37°C, read-out: Buf. remaining rate (%/60min)
Summary of the method: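 Compound from DMSO solution incubated at 37°C in 100 mM potassium phosphate buffer/acetonitrile 7:3 (v/v) for 0, 10 and 60 min, then quenched with acetonitrile containing formic acid (final 0.1%). Unchanged compound in supernatant quantified by LC/MS; remaining rate (%) = amount at each time / amount at zero time × 100.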

[2] = Metabolic stability test in plasma; type: in vitro ADME, human; settings: LC/MS; for remaining at 10 min: unchanged form after 10 minutes at 37°C in human plasma, read-out: Remaining rate in human plasma (%/10min); for remaining at 1 h: unchanged form after 60 minutes at 37°C in human plasma, read-out: Remaining rate in human plasma (%/60min)
Summary of the method: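 Compound in DMSO spiked into human, mouse or hamster plasma, incubated at 37°C for 0, 10 and 60 minutes, then quenched with acetonitrile/formic acid (final 0.1%). Unchanged compound in supernatant quantified by LC/MS; remaining rate (%) relative to time zero.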

[3] = Metabolic stability test in liver S9; type: in vitro ADME; settings: pH 7.4, human liver S9 2 mg protein/mL, LC/MS; for remaining at 10 min: unchanged form after 10 minutes at 37°C, read-out: Remaining rate in human liver S9 (%/10min); for remaining at 1 h: unchanged form after 60 minutes at 37°C, read-out: Remaining rate in human liver S9 (%/60min)
Summary of the method: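 Compound from DMSO solution was incubated at 37°C with human liver S9 (final 2 mg protein/mL) in 100 mM potassium phosphate pH 7.4 with an NADPH-regenerating system for 0, 10 and 60 minutes. Reactions were stopped with acetonitrile/0.1% formic acid. Unchanged compound was measured by LC/MS as remaining rate (%) relative to zero time.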

Row | Compound | remaining at 10 min [1] [%] | remaining at 1 h [1] [%] | remaining at 10 min [2] [%] | remaining at 1 h [2] [%] | remaining at 10 min [3] [%] | remaining at 1 h [3] [%]
1 | CN(C)C(=O)c1cc(CCCC(=O)Oc2ccc(C(=O)OCc3ccc(C(=O)OC(C)(C)C)cc3)cc2)ccc1NC(=O)c1ccccc1-c1ccc(C(F)(F)F)cc1 [Compound 1-103, 4-[4-(3-dimethylcarbamoyl-4-{(4'-trifluoromethylbiphenyl-2-carbonyl)amino}phenyl)butyryloxy]benzoic acid 4-(t-butoxycarbonyl)benzyl ester] | 105 | 111 | 99 | 55 | 48 | 12
2 | CN(C)C(=O)c1cc(CCCC(=O)Oc2ccc(-c3nnn(CC(=O)OCc4ccccc4)n3)cc2)ccc1NC(=O)c1ccccc1-c1ccc(C(F)(F)F)cc1 [Compound 1-104, 4-(3-dimethylcarbamoyl-4-{(4'-trifluoromethylbiphenyl-2-carbonyl)amino}phenyl)butyric acid 4-(2-benzyloxycarbonylmethyl-2H-tetrazol-5-yl)phenyl ester] | 101 | 96 | 78 | 17 | 14 | 5
3 | CN(C)C(=O)Cn1nnc(-c2ccc(OC(=O)CCCc3ccc(NC(=O)c4ccccc4-c4ccc(C(F)(F)F)cc4)c(C(=O)N(C)C)c3)cc2)n1 [Compound 1-105, 4-(3-dimethylcarbamoyl-4-{(4'-trifluoromethylbiphenyl-2-carbonyl)amino}phenyl)butyric acid 4-(2-dimethylcarbamoylmethyl-2H-tetrazol-5-yl)phenyl ester] | 101 | 101 | 84 | 43 | 3 | 0
4 | CC(OC(=O)c1ccc(OC(=O)CCCc2ccc(NC(=O)c3ccccc3-c3ccc(C(F)(F)F)cc3)c(C(=O)N(C)C)c2)cc1)c1ccccc1 (stereo not drawn) [Compound 1-106, 4-[4-(3-dimethylcarbamoyl-4-{(4'-trifluoromethylbiphenyl-2-carbonyl)amino}phenyl)butyryloxy]benzoic acid 1-phenylethyl ester] | 98 | 99 | 49 | 0 | 13 | 0
5 | CN(C)C(=O)c1cc(CCCC(=O)Oc2ccc(C(=O)OC3CCc4ccccc43)cc2)ccc1NC(=O)c1ccccc1-c1ccc(C(F)(F)F)cc1 (stereo not drawn) [Compound 1-107, 4-[4-(3-dimethylcarbamoyl-4-{(4'-trifluoromethylbiphenyl-2-carbonyl)amino}phenyl)butyryloxy]benzoic acid indan-1-yl ester] | 98 | 99 | 63 | 2 | 11 | 3
6 | CN(C)C(=O)c1cc(CCCC(=O)Oc2ccc(C(=O)OC3CCCc4ccccc43)cc2)ccc1NC(=O)c1ccccc1-c1ccc(C(F)(F)F)cc1 (stereo not drawn) [Compound 1-108, 4-[4-(3-dimethylcarbamoyl-4-{(4'-trifluoromethylbiphenyl-2-carbonyl)amino}phenyl)butyryloxy]benzoic acid 1,2,3,4-tetrahydronaphthalen-1-yl ester] | 98 | 98 | 89 | 17 | 25 | 5
7 | CC(=O)N1CCC(OC(=O)c2ccc(OC(=O)CCCc3ccc(NC(=O)c4ccccc4-c4ccc(C(F)(F)F)cc4)c(C(=O)N(C)C)c3)cc2)CC1 [Compound 1-109, 4-[4-(3-dimethylcarbamoyl-4-{(4'-trifluoromethylbiphenyl-2-carbonyl)amino}phenyl)butyryloxy]benzoic acid 1-acetylpiperidin-4-yl ester] | 99 | 99 | 50 | 3 | 0 | 0
8 | COC(=O)c1cc(C)c(OC(=O)CCCc2ccc(NC(=O)c3ccc(C)nc3-c3ccc(C(F)(F)F)cc3)c(C(=O)N(C)C)c2)c(C(=O)OC)c1 [Compound 1-110, 4-[4-(3-dimethylcarbamoyl-4-{[6-methyl-2-(4-trifluoromethylphenyl)pyridine-3-carbonyl]amino}phenyl)butyryloxy]-5-methylisophthalic acid dimethyl ester] | 99 | 102 | 26 | 0 | 5 | 0
9 | COC(=O)c1cc(C(=O)OC(C)C)cc(C)c1OC(=O)CCCc1ccc(NC(=O)c2ccc(C)nc2-c2ccc(C(F)(F)F)cc2)c(C(=O)N(C)C)c1 [Compound 1-111, 4-[4-(3-dimethylcarbamoyl-4-{[6-methyl-2-(4-trifluoromethylphenyl)pyridine-3-carbonyl]amino}phenyl)butyryloxy]-5-methylisophthalic acid 1-isopropyl ester 3-methyl ester] | 99 | 99 | 30 | 0 | 41 | 3
10 | CCOC(=O)c1cc(C)c(OC(=O)CCCc2ccc(NC(=O)c3ccc(C)nc3-c3ccc(C(F)(F)F)cc3)c(C(=O)N(C)C)c2)c(Cl)c1 [Compound 1-112, 3-chloro-4-[4-(3-dimethylcarbamoyl-4-{[6-methyl-2-(4-trifluoromethylphenyl)pyridine-3-carbonyl]amino}phenyl)butyryloxy]-5-methylbenzoic acid ethyl ester] | 99 | 100 | 48 | 0 | 27 | 8
11 | COc1cc(C(=O)OCC(=O)N(C)C)cc(Cl)c1OC(=O)CCCc1ccc(NC(=O)c2ccc(C)nc2-c2ccc(C(F)(F)F)cc2)c(C(=O)N(C)C)c1 [Compound 1-113, 3-chloro-4-[4-(3-dimethylcarbamoyl-4-{[6-methyl-2-(4-trifluoromethylphenyl)pyridine-3-carbonyl]amino}phenyl)butyryloxy]-5-methoxybenzoic acid dimethylcarbamoylmethyl ester] | 103 | 104 | 1 | 0 | 8 | 2
12 | COc1cc(C(=O)OCCNC(C)=O)cc(Cl)c1OC(=O)CCCc1ccc(NC(=O)c2ccc(C)nc2-c2ccc(C(F)(F)F)cc2)c(C(=O)N(C)C)c1 [Compound 1-114, 3-chloro-4-[4-(3-dimethylcarbamoyl-4-{[6-methyl-2-(4-trifluoromethylphenyl)pyridine-3-carbonyl]amino}phenyl)butyryloxy]-5-methoxybenzoic acid 2-acetylaminoethyl ester] | 104 | 108 | 2 | 0 | 14 | 3
13 | CC(C)n1nnc(-c2ccc(OC(=O)CCCc3ccc(NC(=O)c4ccccc4-c4ccc(C(F)(F)F)cc4)c(C(=O)N(C)C)c3)cc2)n1 [Compound 1-115, 4-(3-dimethylcarbamoyl-4-{(4'-trifluoromethylbiphenyl-2-carbonyl)amino}phenyl)butyric acid 4-(2-isopropyl-2H-tetrazol-5-yl)phenyl ester] | 98 | 98 | 85 | 40 | 0 | 0
14 | COC(=O)c1ccc(OC(=O)CN(C)Cc2ccc(NC(=O)c3ccccc3-c3ccc(C(F)(F)F)cc3)c(C(=O)N(C)C)c2)cc1 [Compound 2-1, 4-[2-({3-dimethylcarbamoyl-4-[(4'-trifluoromethylbiphenyl-2-carbonyl)amino]benzyl}methylamino)acetoxy]benzoic acid methyl ester] | 95 | 95 | 47 | 0 | 0 | 0
15 | COC(=O)c1ccc(OC(=O)C2CCN(c3ccc(NC(=O)c4ccccc4-c4ccc(C(F)(F)F)cc4)c(C(=O)N(C)C)c3)CC2)cc1 [Compound 3-1, 1-(3-dimethylcarbamoyl-4-[(4'-trifluoromethylbiphenyl-2-carbonyl)amino]phenyl}piperidine-4-carboxylic acid 4-methoxycarbonylphenyl ester] | 98 | 102 | 63 | 6 | 2 | 0
